In US7576128B2 (priority 2004, dated 2009):

Experiments:
male Syrian hamsters = test: Animal model for inhibition of sebum production (hamster ear, HPLC of sebum components); assay type: in vivo; settings: for % Reduction in CE: cholesterol ester; for % Reduction in CE / % Reduction in WE: 3 w/v% topical twice daily, five days a week, 4 weeks, difference from vehicle control; for Sum CE + WE: summation of CE and WE reductions; for % Reduction in WE: wax ester
Procedure: Luderschmidt et al describes an animal model for testing whether compounds are capable of modulating sebum secretion. Arch. Derm. Res. 258, 185-191 (1977). This model uses male Syrian hamsters, whose ears contain sebaceous glands. Selected compounds produced above were screened in this model.
Testing for sebum inhibition was carried out in the following manner. Male Syrian hamsters aged 9 to 10 weeks were introduced into the laboratory environment and acclimated for 2 weeks prior to use in the study. Each group consisted of 5 animals and were run in parallel with vehicle and positive controls. Prior to administration, 30mg of each compound was dissolved in 1 mL of Universal solvent (ethanol/propylene glycol (70/30%v/v) to achieve a final concentration of 3 w/v%.
Animals were dosed topically twice daily, five days a week, for 4 weeks. Each dose consisted of 25 micro liters of vehicle control or drug. The dose was applied to the ventral surfaces of both the right and left ears. All animals were sacrificed approximately 18-24 hours after the final dose. The right ears were collected from each animal and used for sebum analysis.
The ears were prepped for HPLC analysis in the following manner. One 8mm distal biopsy punch was taken, just above the anatomical “V” mark in the ear to normalize the sample area. The punch was pulled apart. The ventral biopsy surface (the area where the topical dose was directly applied to the sebaceous glands) was retained for testing and the dorsal surface of the biopsy punch was discarded.
HPLC analysis was carried out on an extract of the tissue sample. Tissue samples were contacted with 3ml of solvent (a 4:1 admixture of 2,2,4-trimethylpentane and isopropyl alcohol). The mixture was shaken for 15 minutes and stored overnight at room temperature, protected from light. The next morning 1 milliliter of water was added to the sample and shaken for 15 minutes. The sample was then centrifuged at approximately 1500 rpm for 15 minutes. Two ml of the organic phase (top layer) was transferred to a glass vial, dried at 37° C., under nitrogen, for approximately 1 hour, and then lyophilized for approximately 48 hours. The samples were then removed from the lyophilizer and each vial was reconstituted with 600 μl of solvent A (trimethylpentane/tetrahydrofuran (99:1). The samples were then recapped and vortexed for 5 minutes.
The results are reported as the reduction in cholesterol ester (CE) and wax ester (WE) production, when compared to the vehicle control.
Columns 1 and 2 identify the compound by structure and Example number. Columns 3 through 5 show the effect the compounds had on the -reduction of sebum components (CE and WE). The results are expressed as the difference from the vehicle control. A positive number reflects a decrease in the production of the sebum component being measured, i.e. cholesterol ester (CE) or wax ester (WE).

Male C3H/HeN mice = test: Modified telogen conversion assay (hair growth, induction of anagen); assay type: in vivo; settings: topical twice daily for 4 weeks
Source text: It has been discovered that male C3H/HeN mice may be used in the telogen conversion assay, when evaluating anti-androgen test compounds. Thus, the model relates to a modification of the existing telogen conversion assay. Male C3H/HeN mice approximately 7 weeks old are utilized. These animals are also uniformly in telogen, like their female counterparts. However, once shaven, the androgens inherently present in these male mice inhibit the conversion of the hair follicles to the anagen phase. An anti-androgen will block this androgenic effect and the follicles will convert to anagen, like their female counterparts.
Male C3H/HeN mice, 6 to 7 weeks old (Charles River Laboratories, Raleigh, N.C.) were used for the study. Fur was clipped from the dorsal region of the mice prior to initiation of the study. Only mice with pink skin, a visual indication of the telogen phase, were selected for inclusion in the study.
The test compound was dissolved in a vehicle consisting of propylene glycol (30%) and ethanol (70%) to achieve a concentration of either 0.2% w/v, 0.5% w/v, 1% w/v or 3% w/v. The relevant dose was applied topically to the clipped dorsal region of the mice in one test group (7-10 mice) in a volume of 20 μl/cm^2. A third group of animals received only the vehicle to serve as a control. Treatments were applied twice daily for 4 weeks.
The treatment area was observed and graded every other day for signs of hair growth. The hair growth response was quantified by recording, for each animal, the day on which signs of hair growth first appeared over the treated area. The first sign of anagen was the darkening of skin color as melanocytes in the follicles started to synthesize melanin in preparation for the production of pigmented hairs. […] The percentage of mice showing signs of hair growth in both the treatment group and the control group is graphically depicted in FIG. 1.

| SMILES | % Reduction in CE (male Syrian hamsters) | Sum CE + WE (male Syrian hamsters) | % Reduction in WE (male Syrian hamsters) | rate of hair growth versus vehicle control group (Male C3H/HeN mice; 5% test group) | hair growth (induction of anagen) (Male C3H/HeN mice; concentration of 1%) |
| --- | --- | --- | --- | --- | --- |
| CCCCC(COc1ccc(C#N)c(C(F)(F)F)c1)C(C)O (centres unmarked) [Example 15, 4-[2-(1-Hydroxy-ethyl)-hexyloxy]-2-tri-fluoromethyl-benzonitrile] | 54% | 128% | 74% | – | – |
| C[C@H](O)CC[C@H](C)Oc1ccc(C#N)c(C(F)(F)F)c1 [Example 23, (1S,4S)-4-(4-Hy-droxy-1-methylpentyl-oxy)-2-tri-fluoromethyl-benzonitrile] | 67% | 154% | 87% | did not exceed that of the vehicle control group | produced substantial hair growth |
